The IC50 is the concentration that inhibits the measured activity by half.

We go through twelve molecules from patent US20260022142A1, “MACROCYCLIC IMMUNOMODULATORS” (Bristol-Myers Squibb Company, priority 2022, published 2026).

Bridge positions count the residues as written; N and C are the ends. Square brackets hold non-standard residues; d marks the D form. Peptide text beside a SMILES is read from it. * marks the point of attachment. ξ: configuration not given here. ξPhe(4-guanidino) = N=C(N)Nc1ccc(CC(N)C(=O)O)cc1; Phe(3-CONH2) = NC(=O)c1cccc(C[C@H](N)C(=O)O)c1; Bip = N[C@@H](Cc1ccc(-c2ccccc2)cc1)C(=O)O; NH(CH2)14COOH = O=C(O)CCCCCCCCCCCCCCN*; Phe(3-Me) = Cc1cccc(C[C@H](N)C(=O)O)c1; NH(CH2)12COOH = O=C(O)CCCCCCCCCCCCN*; Cha = N[C@@H](CC1CCCCC1)C(=O)O; Cit = NC(=O)NCCC[C@H](N)C(=O)O; Ile(3ξ) = CCC(C)[C@H](N)C(=O)O; Thr(3ξ) = CC(O)[C@H](N)C(=O)O; 12Ado = NCCCCCCCCCCCC(=O)O; Carboxymethyl = O=C(O)C*; Orn = NCCC[C@H](N)C(=O)O; Aun = NCCCCCCCCCCC(=O)O; Dab = NCC[C@H](N)C(=O)O; Dap = NC[C@H](N)C(=O)O; AEEA = NCCOCCOCC(=O)O

T1 sequence (Q15116 25-288): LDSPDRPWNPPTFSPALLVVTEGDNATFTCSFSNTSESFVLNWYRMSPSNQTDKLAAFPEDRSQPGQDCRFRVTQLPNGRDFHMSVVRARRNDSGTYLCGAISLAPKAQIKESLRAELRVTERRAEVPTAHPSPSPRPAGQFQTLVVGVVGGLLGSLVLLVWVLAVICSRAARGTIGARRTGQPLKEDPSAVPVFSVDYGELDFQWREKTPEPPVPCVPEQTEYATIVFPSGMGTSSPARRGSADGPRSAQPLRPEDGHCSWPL

This assay has as its target T1, PD-1/PD-L1 interaction (PE-labeled human PD-L1-Ig binding to Jurkat cell line over-expressing human PD-1) (Homo sapiens, UniProt Q15116).
T1 construct: expressed in transfected cells; host or cells: Jurkat
As to the kind of experiment: Jurkat-PD-1 Cell Binding High-Content Screening Assay (CBA). The assay is classed as cell-based. The following applies: Jurkat cell line over-expressing human PD-1; PE-labeled PD-L1-Ig 20 nM final; read-out: Jurkat hPD1-PDL1 IC50. The gist of the method: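 Jurkat cells over-expressing human PD-1 (8×10^3 per well, DMEM/10% FCS) preincubated with compound 2 h at 37° C, then PE-labeled human PD-L1-Ig (20 nM final) added for 1 h. Cells fixed with paraformaldehyde, Hoechst-stained, and bound fluorescence quantified by high-content imaging.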
As to `CCC(C)[C@@H]1NC(=O)[C@H](Cc2ccc(-c3ccccc3)cc2)NC(=O)[C@H](C(C)C)NC(=O)[C@H](Cc2c[nH]c3ccccc23)NC(=O)[C@H](CC(=O)O)NC(=O)[C@H](Cc2ccc(OCC(=O)O)cc2)NC(=O)[C@H](CO)NC(=O)CSC[C@@H](C(=O)N[C@@H](CCCN)C(=O)NCCCCCCCCCCC(=O)O)NC(=O)[C@H](C(C)O)NC(=O)[C@H](C(C)C)NC(=O)[C@H](CC2CCCCC2)NC(=O)[C@H](CCN)NC(=O)[C@@H](CC(C)C)NC(=O)[C@H](CCCN)NC1=O` (stereo partly drawn) [Compound 3099] ({CH2CO}-SY(Carboxymethyl)DWV[Bip][Ile(3ξ)][Orn][dL][Dab][Cha]V[Thr(3ξ)]C[Orn][Aun]-OH; thioether N-14), the IC50 is 0.0191 µM.

As for `CCC(C)[C@@H]1NC(=O)[C@H](CC2CCCCC2)NC(=O)[C@H](CCN)NC(=O)[C@@H](CC(C)C)NC(=O)[C@H](CCCN)NC(=O)[C@H](C(C)CC)NC(=O)[C@H](Cc2ccc(-c3ccccc3)cc2)NC(=O)[C@H](CC(C)C)NC(=O)[C@H](Cc2c[nH]c3ccccc23)NC(=O)[C@H](CC(=O)O)NC(=O)[C@H](Cc2ccc(OCC(=O)O)cc2)NC(=O)[C@H](Cc2cccc(C(N)=O)c2)NC(=O)CSC[C@@H](C(=O)N[C@@H](CC(N)=O)C(=O)NCCOCCOCC(=O)NCCCCCCCCCCC(=O)O)NC(=O)[C@H](CO)NC1=O` (stereo partly drawn) [Compound 3116] ({CH2CO}-[Phe(3-CONH2)]Y(Carboxymethyl)DWL[Bip][Ile(3ξ)][Orn][dL][Dab][Cha][Ile(3ξ)]SCN[AEEA][Aun]-OH; thioether N-14), the IC50 stood at 0.0434 µM.

With `CCC(C)[C@@H]1NC(=O)[C@H](CC2CCCCC2)NC(=O)[C@H](CCN)NC(=O)[C@@H](CC(C)C)NC(=O)[C@H](CCCN)NC(=O)[C@H](C(C)CC)NC(=O)[C@H](Cc2ccc(-c3ccccc3)cc2)NC(=O)[C@H](CC(C)C)NC(=O)[C@H](Cc2c[nH]c3ccccc23)NC(=O)[C@H](CC(=O)O)NC(=O)[C@H](Cc2ccc(OCC(=O)O)cc2)NC(=O)C(Cc2ccc(N=C(N)N)cc2)NC(=O)CSC[C@@H](C(=O)N[C@@H](CC(N)=O)C(=O)NCCOCCOCC(=O)NCCCCCCCCCCC(=O)O)NC(=O)[C@H](CO)NC1=O` (stereo partly drawn) [Compound 3117] ({CH2CO}-[ξPhe(4-guanidino)]Y(Carboxymethyl)DWL[Bip][Ile(3ξ)][Orn][dL][Dab][Cha][Ile(3ξ)]SCN[AEEA][Aun]-OH; thioether N-14), the half-maximal inhibitory concentration (IC50) stood at 0.16 µM.

On to `CCC(C)[C@@H]1NC(=O)[C@H](CC2CCCCC2)NC(=O)[C@H](CCN)NC(=O)[C@@H](CC(C)C)NC(=O)[C@H](CCCN)NC(=O)[C@H](C(C)CC)NC(=O)[C@H](Cc2ccc(-c3ccccc3)cc2)NC(=O)[C@H](C(C)CC)NC(=O)[C@H](Cc2c[nH]c3ccccc23)NC(=O)[C@H](CC(=O)O)NC(=O)[C@H](Cc2ccc(OCC(=O)O)cc2)NC(=O)[C@H](C(C)O)NC(=O)CSC[C@@H](C(=O)N[C@H](CC(N)=O)C(=O)NCCOCCOCC(=O)N2CCC[C@@H]2C(=O)NCCCCCCCCCCC(=O)O)NC(=O)[C@H](CO)NC1=O` (stereo partly drawn) [Compound 3118] ({CH2CO}-[Thr(3ξ)]Y(Carboxymethyl)DW[Ile(3ξ)][Bip][Ile(3ξ)][Orn][dL][Dab][Cha][Ile(3ξ)]SC[dN][AEEA][dP][Aun]-OH; thioether N-14), for which the IC50 is 0.0304 µM.

Take `CCC(C)[C@@H]1NC(=O)[C@H](CC2CCCCC2)NC(=O)[C@H](CCN)NC(=O)[C@@H](CC(C)C)NC(=O)[C@H](CCCN)NC(=O)[C@H](C(C)CC)NC(=O)[C@H](Cc2ccc(-c3ccccc3)cc2)NC(=O)[C@H](C(C)CC)NC(=O)[C@H](Cc2c[nH]c3ccccc23)NC(=O)[C@H](CC(=O)O)NC(=O)[C@H](Cc2ccc(OCC(=O)O)cc2)NC(=O)[C@H](C(C)O)NC(=O)CSC[C@@H](C(=O)N[C@H](CC(N)=O)C(=O)NCCOCCOCC(=O)N[C@@H](Cc2c[nH]cn2)C(=O)NCCCCCCCCCCC(=O)O)NC(=O)[C@H](CO)NC1=O` (stereo partly drawn) [Compound 3119] ({CH2CO}-[Thr(3ξ)]Y(Carboxymethyl)DW[Ile(3ξ)][Bip][Ile(3ξ)][Orn][dL][Dab][Cha][Ile(3ξ)]SC[dN][AEEA]H[Aun]-OH; thioether N-14): the IC50 worked out at 0.0246 µM.

As to `CCC(C)[C@@H]1NC(=O)[C@H](CC2CCCCC2)NC(=O)[C@H](CCN)NC(=O)[C@@H](CC(C)C)NC(=O)[C@H](CCCN)NC(=O)[C@H](C(C)CC)NC(=O)[C@H](Cc2ccc(-c3ccccc3)cc2)NC(=O)[C@H](C(C)CC)NC(=O)[C@H](Cc2c[nH]c3ccccc23)NC(=O)[C@H](CC(=O)O)NC(=O)[C@H](Cc2ccc(OCC(=O)O)cc2)NC(=O)[C@H](C(C)O)NC(=O)CSC[C@@H](C(=O)N[C@H](CC(N)=O)C(=O)NCCOCCOCC(=O)N[C@@H](CCCN)C(=O)NCCCCCCCCCCC(=O)O)NC(=O)[C@H](CO)NC1=O` (stereo partly drawn) [Compound 3120] ({CH2CO}-[Thr(3ξ)]Y(Carboxymethyl)DW[Ile(3ξ)][Bip][Ile(3ξ)][Orn][dL][Dab][Cha][Ile(3ξ)]SC[dN][AEEA][Orn][Aun]-OH; thioether N-14), the IC50 came to 0.0248 µM.

Regarding `CCC(C)[C@@H]1NC(=O)[C@H](CC2CCCCC2)NC(=O)[C@H](CCN)NC(=O)[C@@H](CC(C)C)NC(=O)[C@H](CCCN)NC(=O)[C@H](C(C)CC)NC(=O)[C@H](Cc2ccc(-c3ccccc3)cc2)NC(=O)[C@H](C(C)CC)NC(=O)[C@H](Cc2c[nH]c3ccccc23)NC(=O)[C@H](CC(=O)O)NC(=O)[C@H](Cc2ccc(OCC(=O)O)cc2)NC(=O)[C@H](C(C)O)NC(=O)CSC[C@@H](C(=O)N[C@@H](CN)C(=O)NCCOCCOCC(=O)N[C@@H](CCCN)C(=O)NCCCCCCCCCCC(=O)O)NC(=O)[C@H](CO)NC1=O` (stereo partly drawn) [Compound 3121] ({CH2CO}-[Thr(3ξ)]Y(Carboxymethyl)DW[Ile(3ξ)][Bip][Ile(3ξ)][Orn][dL][Dab][Cha][Ile(3ξ)]SC[Dap][AEEA][Orn][Aun]-OH; thioether N-14), the IC50 was found to be 0.0104 µM.

With `Cc1cccc(C[C@@H]2NC(=O)[C@H](CC(=O)O)NC(=O)[C@H](Cc3ccc(OCC(=O)O)cc3)NC(=O)[C@H](CN)NC(=O)CSC[C@@H](C(=O)N[C@@H](CCCN)C(=O)NCCCCCCCCCCCC(=O)O)NC(=O)[C@H](C(C)O)NC(=O)[C@H](C(C)C)NC(=O)[C@H](CC3CCCCC3)NC(=O)[C@H](CCN)NC(=O)[C@@H](CC(C)C)NC(=O)[C@H](CCCN)NC(=O)[C@H](CCCNC(N)=O)NC(=O)[C@H](Cc3ccc(-c4ccccc4)cc3)NC(=O)[C@H](C(C)C)NC2=O)c1` (stereo partly drawn) [Compound 3122] ({CH2CO}-[Dap]Y(Carboxymethyl)D[Phe(3-Me)]V[Bip][Cit][Orn][dL][Dab][Cha]V[Thr(3ξ)]C[Orn][12Ado]-OH; thioether N-14), the half-maximal inhibitory concentration (IC50) came out at 0.0193 µM.

As to `Cc1cccc(C[C@@H]2NC(=O)[C@H](CC(=O)O)NC(=O)[C@H](Cc3ccc(OCC(=O)O)cc3)NC(=O)[C@H](CN)NC(=O)CSC[C@@H](C(=O)N[C@@H](CCCN)C(=O)NCCCCCCCCCCCCC(=O)O)NC(=O)[C@H](C(C)O)NC(=O)[C@H](C(C)C)NC(=O)[C@H](CC3CCCCC3)NC(=O)[C@H](CCN)NC(=O)[C@@H](CC(C)C)NC(=O)[C@H](CCCN)NC(=O)[C@H](CCCNC(N)=O)NC(=O)[C@H](Cc3ccc(-c4ccccc4)cc3)NC(=O)[C@H](C(C)C)NC2=O)c1` (stereo partly drawn) [Compound 3123] ({CH2CO}-[Dap]Y(Carboxymethyl)D[Phe(3-Me)]V[Bip][Cit][Orn][dL][Dab][Cha]V[Thr(3ξ)]C[Orn]-{NH(CH2)12COOH}; thioether N-14), the 50% inhibitory concentration (IC50) was determined as 0.0829 µM.

Turning to `Cc1cccc(C[C@@H]2NC(=O)[C@H](CC(=O)O)NC(=O)[C@H](Cc3ccc(OCC(=O)O)cc3)NC(=O)[C@H](CN)NC(=O)CSC[C@@H](C(=O)N[C@@H](CCCN)C(=O)NCCCCCCCCCCCCCCC(=O)O)NC(=O)[C@H](C(C)O)NC(=O)[C@H](C(C)C)NC(=O)[C@H](CC3CCCCC3)NC(=O)[C@H](CCN)NC(=O)[C@@H](CC(C)C)NC(=O)[C@H](CCCN)NC(=O)[C@H](CCCNC(N)=O)NC(=O)[C@H](Cc3ccc(-c4ccccc4)cc3)NC(=O)[C@H](C(C)C)NC2=O)c1` (stereo partly drawn) [Compound 3124] ({CH2CO}-[Dap]Y(Carboxymethyl)D[Phe(3-Me)]V[Bip][Cit][Orn][dL][Dab][Cha]V[Thr(3ξ)]C[Orn]-{NH(CH2)14COOH}; thioether N-14), the IC50 is 0.281 µM.

In the case of `Cc1cccc(C[C@@H]2NC(=O)[C@H](CC(=O)O)NC(=O)[C@H](Cc3ccc(OCC(=O)O)cc3)NC(=O)[C@H](CN)NC(=O)CSC[C@@H](C(=O)N[C@@H](CCN)C(=O)NCCCCCCCCCCCC(=O)O)NC(=O)[C@H](C(C)O)NC(=O)[C@H](C(C)C)NC(=O)[C@H](CC3CCCCC3)NC(=O)[C@H](CCN)NC(=O)[C@@H](CC(C)C)NC(=O)[C@H](CCCN)NC(=O)[C@H](CCCNC(N)=O)NC(=O)[C@H](Cc3ccc(-c4ccccc4)cc3)NC(=O)[C@H](C(C)C)NC2=O)c1` (stereo partly drawn) [Compound 3125] ({CH2CO}-[Dap]Y(Carboxymethyl)D[Phe(3-Me)]V[Bip][Cit][Orn][dL][Dab][Cha]V[Thr(3ξ)]C[Dab][12Ado]-OH; thioether N-14), the IC50 turned out to be 0.0291 µM.

Turning to `Cc1cccc(C[C@@H]2NC(=O)[C@H](CC(=O)O)NC(=O)[C@H](Cc3ccc(OCC(=O)O)cc3)NC(=O)[C@H](CN)NC(=O)CSC[C@@H](C(=O)N[C@@H](CCN)C(=O)NCCCCCCCCCCCCCCC(=O)O)NC(=O)[C@H](C(C)O)NC(=O)[C@H](C(C)C)NC(=O)[C@H](CC3CCCCC3)NC(=O)[C@H](CCN)NC(=O)[C@@H](CC(C)C)NC(=O)[C@H](CCCN)NC(=O)[C@H](CCCNC(N)=O)NC(=O)[C@H](Cc3ccc(-c4ccccc4)cc3)NC(=O)[C@H](C(C)C)NC2=O)c1` (stereo partly drawn) [Compound 3127] ({CH2CO}-[Dap]Y(Carboxymethyl)D[Phe(3-Me)]V[Bip][Cit][Orn][dL][Dab][Cha]V[Thr(3ξ)]C[Dab]-{NH(CH2)14COOH}; thioether N-14), the IC50 was determined as 0.308 µM.
